Marks after values point to notes of the source that are not given here.
Columns and labels:
RAW264.7 cells = experiment: Osteoclastogenesis (RANKL-induced TRAP activity, multinucleated osteoclasts); assay type: cell-based
Description: FIG. 2 depicts activity of compound I (LA-1) and compound 8 (LA-3) on osteoclastogenesis. FIG. 2: (A) Effects of test compounds on the RANKL-induced TRAP activity. (B) Effects of test compounds on the RANKL-induced formation of TRAP-positive multinucleated osteoclasts. Effects of test compounds on osteoclast differentiation was evaluated in RAW264.7 cells. RAW264.7 cells were plated in 96-well plates at the density 1×10^3 and then serially diluted LA compounds were treated and incubated until multinucleated osteoclasts were observed under a microscope.
RAW264.7 cells were purchased from the ATCC and maintained in DMEM supplemented with 10% FBS, 100 U/ml of penicillin, and 100 μg/ml streptomycin with a change of medium every 3 days in humidified atmosphere of 5% CO2 in air at 37° C. For the osteoclast differentiation, RAW264.7 cells were suspended in α-minimal essential medium (α-MEM) supplemented with 10% FBS and 100 ng/ml RANKL (R&D Systems Inc., MN) and plated in a 96-well plate at 1×10^3 cells/well. The next day, cells were treated with largazole and then after an additional 3 days, multinucleated osteoclasts were observed.
Multinucleated osteoclasts were fixed with 10% formalin for 10 min and ethanol/acetone (1:1) for 1 min, and then stained by Leukocyte Acid Phosphatase Kit 387-A (Sigma, Mo.). […] Absorbance was measured at 410 nm, and TRAP activity was presented as % of control. […]

Runx2 = Runx2 luciferase reporter assay (p6xOSE2-luc); assay type: cell-based
Description: FIG. 1. depicts activity of compound I (LA-1) and compound 8 (LA-3) on osteoblast differentiation. FIG. 1: (A) The effects of test compounds (up to 500 nM) on osteoblast differentiation were evaluated by ALP staining. (B) The effect of test compounds (up to 50 nM) on osteoblast differentiation were evaluated by ALP staining. MS-275 was used as a positive control. The effects of test compounds on cell viability (C) and RUNX2 activity (D) were evaluated by CCK-8 assay and 6×OSE2-luciferase activity assay, respectively.
To measure Runx2 activity, p6×osteoblast-specific cis-acting element (OSE) 2-luc reporter vector was transiently transfected into C2C12 cells that were seeded in a 96-well plate at 5×10^3 cells/well as described previously (Kim et al., J. Cell Biochem. 2004, 9, 1239-1247). After 24 h, medium was replaced with DMEM containing 5% FBS with or without tanshinone IIA and/or BMP-2. After 24 h, the cells were lysed, and luciferase activity was measured using luciferase reporter assay system (Promega) and the Wallac EnVision microplate reader.

C2C12 cells = experiment: mRNA induction of osteoblastogenesis markers and BMPs by quantitative real-time PCR; assay type: cell-based; conditions: for ALP mRNA level, fold change relative to the control / BMP-2 mRNA level, fold change relative to the control / BMP-4 mRNA level, fold change relative to the control / BMP-6 mRNA level, fold change relative to the control / BMP-7 mRNA level, fold change relative to the control / BMP-9 mRNA level, fold change relative to the control / OPN mRNA level, fold change relative to the control / RUNX2 mRNA level, fold change relative to the control: 6 days, C2C12 cells, mean ± SD
Description: Primers were designed using an on-line primer design program (Table 1). (S. Rozen, H. J. Skaletsky, Methods Mol. Biol. 2000, 132, 365-386.) Total RNA was isolated using TRIzol reagent (Life Technologies, MD) according to manufacturer's protocol. The concentration and purity of total RNA were calculated by measuring absorbance at 260 and 280 nm. First strand cDNA was synthesized using 2 μg of total RNA and 1 μM of oligo-dT18 primer and Omniscript Reverse Transcriptase (Qiagen, CA). SYBR green-based quantitative PCR was performed using the Stratagene Mx3000P Real-Time PCR system and Brilliant SYBR Green Master Mix (Stratagene, CA) with 3 μl of first-strand cDNA diluted 1:50 and 20 pmole of primers, according to the manufacturer's protocols. The PCR reaction consisted of three segments. The first segment (95° C. for 10 min) activated the polymerase; the second segment included 3-step cycling (40 cycles) at 94° C. for 40 sec (denaturation), 60° C. for 40 sec (annealing), and 72° C. for 1 min (extension); the third segment was performed to generate PCR product temperature dissociation curves (‘melting curves’) at 95° C. for 1 min, 55° C. for 30 sec, 95° C. for 30 sec. All reactions were run in triplicate, and data were analyzed by the 2^−ΔΔCT method (K. J. Livak, T. D. Schmittgen, Methods 2001, 25, 402-408.). GAPDH was used as the control gene. Significance was determined by Student's t-test with GAPDH-normalized 2^−ΔΔCT values. Differences were considered significant when P<0.05.

calvarial bones of mice = experiment: In vivo murine calvarial bone formation assay
Description: In vivo bone-forming activity of largazole was evaluated using lyophilized collagen sponges as described previously. […] Three weeks after drug implantation, the calvarias were harvested, fixed in 4% paraformaldehyde, decalcified in 12% EDTA, embedded in paraffin, and sectioned. Sections were deparaffinized through graded xylene washes, […] in a graded series of ethanol washes, and stained with hematoxylin and eosin (H&E).

calvaria bone = experiment: In vivo bone regeneration model (calvaria bone defects); design: species or system rabbits
Description: All rabbits are anesthetized with an intramuscular dose of 0.1 ml/kg Zoletil (Virbac, France). The head is shaved, and the cutaneous surface is disinfected with povidone iod solution prior to the operation. The calvaria bone is exposed through a skin incision of ˜4 cm in length. Four similar circular bicortical defects (3-mm diameter) are made in the parietal bone using a trephine on a slow-speed electric handpiece, applying 0.9% physiologic saline irrigation. Defects are filled with 10 mg of bone graft substitute, MBCP (Biomatlante, France) soaked with 50 μl of PBS or LA-1. Closure of periosteum and subcutaneous tissues is done with lactomer (Syneture), while the skin is relocated with nylon:polyamide (Syneture). Postoperative antibiotics are administered, e.g., Gentamycin. Rabbits are sacrificed at 4 weeks after surgery.

CCCCCCCC(=O)SCC/C=C/[C@@H]1CC(=O)NCc2nc(cs2)C2=N[C@@](C)(CS2)C(=O)N[C@@H](C(C)C)C(=O)O1 [Largazole, largazole]
inhibition of osteoclastogenesis (RAW264.7 cells): potential to inhibit the osteoclastogenesis | activity of RUNX2 (6×OSE2-luciferase activity assay) (Runx2; FIG. 1D): strongly induced the activity of RUNX2 | increase of Runx2 activity relative to the DMSO control (Runx2; largazole at 50 nM, p6×OSE2-luciferase reporter): 29 fold | ALP mRNA level, fold change relative to the control (C2C12 cells; largazole 1 nM): 1.85 ± 0.06^a fold | BMP-2 mRNA level, fold change relative to the control (C2C12 cells; largazole 1 nM): 2.15 ± 0.42^b fold | BMP-4 mRNA level, fold change relative to the control (C2C12 cells; largazole 1 nM): 0.91 ± 0.22 fold | BMP-6 mRNA level, fold change relative to the control (C2C12 cells; largazole 1 nM): 1.69 ± 0.12^b fold | BMP-7 mRNA level, fold change relative to the control (C2C12 cells; largazole 1 nM): 5.05 ± 0.31^c fold | BMP-9 mRNA level, fold change relative to the control (C2C12 cells; largazole 1 nM): 5.18 ± 0.74^c fold | OPN mRNA level, fold change relative to the control (C2C12 cells; largazole 1 nM): 1.33 ± 0.19 fold | RUNX2 mRNA level, fold change relative to the control (C2C12 cells; largazole 1 nM): 2.47 ± 0.39^b fold | ALP mRNA level, fold change relative to the control (C2C12 cells; largazole 50 nM): 324.04 ± 1.59^c fold | BMP-2 mRNA level, fold change relative to the control (C2C12 cells; largazole 50 nM): 6.29 ± 0.98^c fold | BMP-4 mRNA level, fold change relative to the control (C2C12 cells; largazole 50 nM): 2.38 ± 0.91^a fold | BMP-6 mRNA level, fold change relative to the control (C2C12 cells; largazole 50 nM): 7.15 ± 1.33^b fold | BMP-7 mRNA level, fold change relative to the control (C2C12 cells; largazole 50 nM): 17.12 ± 2.59^c fold | BMP-9 mRNA level, fold change relative to the control (C2C12 cells; largazole 50 nM): 12.14 ± 3.17^b fold | OPN mRNA level, fold change relative to the control (C2C12 cells; largazole 50 nM): 2.28 ± 0.12^b fold | RUNX2 mRNA level, fold change relative to the control (C2C12 cells; largazole 50 nM): 3.66 ± 1.19^a fold | ALP mRNA level, fold change relative to the control (C2C12 cells; largazole 100 nM): 263.33 ± 11.61^b fold | BMP-2 mRNA level, fold change relative to the control (C2C12 cells; largazole 100 nM): 6.34 ± 1.16^b fold | BMP-4 mRNA level, fold change relative to the control (C2C12 cells; largazole 100 nM): 3.48 ± 1.63 fold | BMP-6 mRNA level, fold change relative to the control (C2C12 cells; largazole 100 nM): 8.37 ± 0.88^c fold | BMP-7 mRNA level, fold change relative to the control (C2C12 cells; largazole 100 nM): 10.72 ± 1.90^c fold | BMP-9 mRNA level, fold change relative to the control (C2C12 cells; largazole 100 nM): 10.18 ± 2.22^b fold | OPN mRNA level, fold change relative to the control (C2C12 cells; largazole 100 nM): 0.83 ± 0.04^a fold | RUNX2 mRNA level, fold change relative to the control (C2C12 cells; largazole 100 nM): 2.06 ± 0.00^c fold | increase of Runx2 mRNA level relative to the DMSO control (C2C12 cells; largazole at 50 nM, real-time PCR): 3 fold | mRNA expression levels of BMPs (BMP-2, 4, 6, 7, and 9) (C2C12 cells; real-time PCR): significantly induced | woven bone formation at lower (50 μM) versus higher (100 μM) concentration (calvarial bones of mice; 50 μM compared with 100 μM, collagen sponge implant): more significant than that at the higher concentration | woven bone formation over the periosteum of the calvarial bones (calvarial bones of mice; collagen sponges soaked with largazole implanted, three weeks): induced woven bone formation | anabolic bone forming activity in vivo (calvaria bone): exhibited anabolic bone forming activity

From patent US20130281497A1, “MACROCYCLIC COMPOUNDS AND METHODS OF TREATMENT” (University of Florida Research Foundation, Inc., priority 2010, published 2013)
